Test results reported in US20050004044A1, “Use of orsaponin [3beta, 16beta, 17 alpha-trihydroxycholost-5-en-22-one 16-0-(2-0-4-methoxybenzoyl-beta-D-xylopyranosyl)-(1->3)-(2-0-acetyl-alpha-L-arabinopyranoside)] or OSW-1 and its derivatives for cancer therapeutics” (priority 2003, published 2005).

Assays:
[1] = tested on: HCT116 p53−/− colon cancer cells; assay: Colony formation assay, HCT116 p53−/−; assay type: cell-based, human
Procedure: FIG. 6. Effect of OSW-1 on cell survival in human colon carcinoma cells. Human colon cancer cells with wild-type p53 (HCT116 p53+/+) and p53-null (HCT116 p53−/−) were treated with the indicated concentrations of OSW-1, and cell survival was measured by colony formation assay.
OSW-1 Inhibits Growth of Human Colon Cancer Cells. […] The HCT116 colon cancer cells with wild-type p53 (p53+/+) and p53-null (p53−/−) were treated with the various concentrations of orsaponin (OSW-1), and cell survival was measured by colony formation assay.

[2] = tested on: C19 cells (ML-1 mutant with mitochondrial respiration defect); assay: Mitochondrial transmembrane potential (rhodamine-123), C19; assay type: cell-based, human; conditions: C19, 1 nM
Procedure: FIG. 11. Effect of orsaponin (OSW-1) on mitochondrial transmembrane potential ML-1 cells. The parental ML-1 line and its mutant with mitochondrial respiration defect, clone C19, were incubated with 1 nM OSW-1 for the indicated times. Change in mitochondrial transmembrane potential was measured by cytometry analysis, using rhodamine-123 as a potential-sensitive fluorescent probe.
(§1) 3. Analysis of the Mitochondrial Transmembrane Potential. To evaluate the role of mitochondrial respiration in the cytotoxicity of OSW-1, changes in the potential of mitochondrial membrane were analyzed. Following the treatment of cells with OSW-1 for different time periods, cells were incubated with rhodamine-123 which is a potential-sensitive dye. Cytometric analysis was used to record changes in mitochondrial potential. […]
The effect of OSW-1 on mitochondrial transmembrane potential of ML-1 cells and the corresponding mitochondrial respiration defective mutant cell line C19 were analyzed by incubating with 1 nM OSW-1 for 4, 16 and 24 hours. Change in mitochondrial transmembrane potential was measured by cytometry analysis, using rhodamine-123 as a potential-sensitive fluorescent probe and are depicted in FIG. 11.

[3] = tested on: pancreatic cancer AsPC-1 cells; assay: MTT cell growth inhibition, AsPC-1; assay type: cell-based, human; conditions: AsPC-1, 72 h or 96 h
Procedure: FIG. 3. Effect of Orsaponin (OSW-1) on cell growth in human pancreatic cancer cells. Human pancreatic cancer AsPC-1 cells were treated with the indicated concentrations of OSW-1 for 72 h or 96 h. Cell growth inhibition was measured by MTT assay.
FIG. 4. The anticancer activity of Orsaponin (OSW-1) is not affected by NFκB expression in pancreatic cancer cells. Human pancreatic cancer cells AsPC-1 with constitutive activation of NFκB or inactivation of NFκB by dominant negative IκBα (AsPC-1/IκBα-ND) were treated with the indicated concentrations of OSW-1 for 72 h. Cell growth inhibition was measured by MTT assay.
Cells and Cell Lines. Various cancer cell lines were used including the human leukemia cell lines HL-60 and ML-1 cells; human lymphoma cell line Raji; human pancreatic cancer cells AsPC-1; and human ovarian cancer cells SKOV3; human colon cancer cells HCT116; as well as isolated CLL cells from patients; and lymphocytes from normal donors. […]
1. […] After the indicated number of days (usually 3 days or 72 hours) of exposure to OSW-1, cell survival was assessed by the addition of the MTT dye to the wells. […] Survival of cells under orsaponin treatment was evaluated as a percentage of control cell growth. […]
The effect of Orsaponin and 17-deoxyorsaponin in pancreatic cancer cells was also assessed. […] Cell growth inhibition was measured by MTT assay.

[4] = tested on: cancer cells of pancreatic, ovarian, colon, and CLL origins; assay: Cytotoxicity in cancer cells, summary statement; assay type: cell-based; conditions: Homo sapiens, read-out: IC50, kills cancer cells
Excerpt: The results were also observed in vivo in mouse models of ovarian cancer where animal survival was improved, and tumor volume reductions were observed

[5] = tested on: ovarian cancer SKOV3 cells; assay: MTT cell growth inhibition, SKOV3; assay type: cell-based; conditions: Homo sapiens, SK-OV-3, SKOV3, 72 h
Procedure: FIG. 5. Effect of Orsaponin (OSW-1) on cell growth in human ovarian cancer cells (SKOV3). Human ovarian cancer SKOV3 cells were treated with the indicated concentrations of OSW-1 for 72 h. Cell growth inhibition was measured by the MTT assay. The IC50 value is approximately 0.2 nM under the experimental conditions.
1. MTT Assays. For these assays either cancer cell lines were used. Alternatively, mononuclear cells from peripheral blood samples of CLL patients or normal donors were separated by Ficoll Hipaque fractionation and resuspended in DMEM complete medium. […] After the indicated number of days (usually 3 days or 72 hours) of exposure to OSW-1, cell survival was assessed by the addition of the MTT dye to the wells. […] Survival of cells under orsaponin treatment was evaluated as a percentage of control cell growth. […]
OSW-1 Inhibits Growth of Ovarian Cancer Cells. […] Human ovarian cancer SKOV3 cells were treated with 0-10 nM OSW-1 for 72 h and cell growth inhibition was measured by the MTT assay.
The effect of 17-deoxyorsaponin in human ovarian cancer cells was determined. […] Cell growth inhibition was measured by MTT assay (FIG. 17). […] ML-1 leukemia cells were incubated with various concentrations of 17-deoxyorsaponin for 72 h and cell growth inhibition was measured using the MTT assay (FIG. 18).

[6] = tested on: C6F cells; assay: Mitochondrial transmembrane potential (rhodamine-123), C6F; assay type: cell-based, human; conditions: 0.5 nM
Procedure: FIG. 10. Effect of Orsaponin (OSW-1) on Mitochondrial transmembrane potential HL-60 cells. The parental HL-60 line and its mutant with mitochondrial respiration defect, clone C6F, were incubated with 0.5 nM OSW-1 for the indicated times. Change in mitochondrial transmembrane potential was measured by cytometry analysis, using rhodamine-123 as a potential-sensitive fluorescent dye.
as §1
The effect of OSW-1 on mitochondrial transmembrane potential in HL-60 cells and C6F cells was also analyzed by incubating the cells with 0.5 nM OSW-1 for the 4, 16 and 24 hours. Change in mitochondrial transmembrane potential was measured by flow cytometry analysis, using rhodamine-123 as a potential-sensitive fluorescent dye and are depicted in FIG. 10.

## COc1ccc(C(=O)OC2C(OC3C(O)COC(O[C@H]4C[C@H]5[C@@H]6CC=C7C[C@@H](O)CC[C@]7(C)[C@H]6CC[C@]5(C)[C@@]4(O)[C@H](C)C(=O)CCC(C)C)C3OC(C)=O)OCC(O)C2O)cc1 (stereo partly drawn) [OSW-1, 3β, 16β, 17 α-trihydroxycholost-5-en-22-one 16-O-(2-O-4-methoxybenzoyl-β-D-xylopyranosyl)-(1->3)-(2-O-acetyl-α-L-arabinopyranoside)]
[1]
  cell survival, colony formation: effectively kill the p53−/− cells
[2]
  change in mitochondrial transmembrane potential: loss of mitochondrial transmembrane potential in only a small portion the cells
[3]
  concentrations at which highly potent: 0.1 to 5 nM
[4]
  IC50: < 1000 pM
[5]
  IC50: ~200 pM
[6]
  change in mitochondrial transmembrane potential: did not show significant loss of mitochondrial transmembrane potential
